This note sets out measurements from ChEMBL document CHEMBL5154923 (J Med Chem, 2022).

The source made the active and inactive calls. The calls are words filed in the database; no cut-off is given here.

In series [1] the test system is HEK-293T. The series is described as follows: Cytotoxicity against human HEK293T cells assessed as increase in total apoptotic cells at 10 uM incubated for 18 hrs by Annexin V staining based method. Type of series: toxicity, cell-based.
Series [2] has as its target T1, Cyclin-G-associated kinase (Homo sapiens, UniProt O14976).
T1 sequence (O14976 whole entry): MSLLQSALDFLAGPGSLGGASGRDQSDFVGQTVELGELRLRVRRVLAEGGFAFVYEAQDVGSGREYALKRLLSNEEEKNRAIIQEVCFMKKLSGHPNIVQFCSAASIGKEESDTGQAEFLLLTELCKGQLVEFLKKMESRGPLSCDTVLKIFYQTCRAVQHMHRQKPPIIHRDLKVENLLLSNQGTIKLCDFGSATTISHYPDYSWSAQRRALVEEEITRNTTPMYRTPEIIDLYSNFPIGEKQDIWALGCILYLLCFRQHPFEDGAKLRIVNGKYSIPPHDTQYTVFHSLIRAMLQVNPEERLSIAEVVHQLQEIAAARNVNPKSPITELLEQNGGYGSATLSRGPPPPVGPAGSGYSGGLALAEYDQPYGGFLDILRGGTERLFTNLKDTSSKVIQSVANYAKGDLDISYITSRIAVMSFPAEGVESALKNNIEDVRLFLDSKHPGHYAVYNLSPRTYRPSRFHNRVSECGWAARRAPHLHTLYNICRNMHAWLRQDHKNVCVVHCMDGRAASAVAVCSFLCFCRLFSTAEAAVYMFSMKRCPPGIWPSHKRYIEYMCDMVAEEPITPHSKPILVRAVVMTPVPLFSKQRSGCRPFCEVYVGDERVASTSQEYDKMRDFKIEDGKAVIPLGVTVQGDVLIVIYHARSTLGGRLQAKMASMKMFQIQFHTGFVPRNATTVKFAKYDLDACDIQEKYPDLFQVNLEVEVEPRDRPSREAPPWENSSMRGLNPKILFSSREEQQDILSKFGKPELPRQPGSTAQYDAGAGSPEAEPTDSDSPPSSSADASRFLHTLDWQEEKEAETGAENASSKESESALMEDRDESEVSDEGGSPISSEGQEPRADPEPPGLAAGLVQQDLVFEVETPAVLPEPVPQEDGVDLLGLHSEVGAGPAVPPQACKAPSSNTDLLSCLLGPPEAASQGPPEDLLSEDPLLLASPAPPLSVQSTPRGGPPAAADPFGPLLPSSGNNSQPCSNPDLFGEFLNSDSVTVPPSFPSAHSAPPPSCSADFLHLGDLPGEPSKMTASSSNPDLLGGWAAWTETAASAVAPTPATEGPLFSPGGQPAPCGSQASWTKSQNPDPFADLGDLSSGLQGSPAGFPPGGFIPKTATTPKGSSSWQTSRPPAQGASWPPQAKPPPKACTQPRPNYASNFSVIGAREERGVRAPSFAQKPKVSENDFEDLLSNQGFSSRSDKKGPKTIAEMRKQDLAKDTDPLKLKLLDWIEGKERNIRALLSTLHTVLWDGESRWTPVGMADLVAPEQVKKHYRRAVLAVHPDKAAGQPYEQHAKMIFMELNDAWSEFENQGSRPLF
The series is described as follows: Inhibition of GAK (unknown origin) transfected in HEK293T cells using NanoBRET NanoGlo as substrate incubated for 2 hrs by NanoBRET assay. Type of series: cell-based. For orientation: Bioluminescence resonance energy transfer reports proximity on the nanometre scale.

Series [3] is described as follows: Binding affinity to wild type full length human CK2alpha2 (1 to 350 residues) expressed in mammalian expression system assessed as change in melting temperature by SYPRO orange dye based DSF assay. A general note: Differential scanning fluorimetry follows unfolding on heating by fluorescence.
The nature of series [4]: Cytotoxicity against human MRC9 cells assessed as increase in total apoptotic cells at 10 uM incubated for 36 hrs by Annexin V staining based method. Type of series: toxicity, cell-based. Particulars: mrc9, 36 h.
A further series deals with LN-18. The series is described as follows: Antiproliferative activity against human LN-18 cells assessed as reduction in cell viability after 1 to 7 days by resazurin dye based fluorimetric analysis. Type of series: functional. (Alamar Blue is a resazurin reagent that responds to reducing activity.)
The subject of a further series is D-247MG. The series is described as follows: Antiproliferative activity against human D-247MG cells assessed as reduction in cell viability after 1 to 7 days by resazurin dye based fluorimetric analysis. Type of series: functional.
The target in series [5] is T2, Serine/threonine-protein kinase 17A (Homo sapiens, UniProt Q9UEE5).
T2 sequence (Q9UEE5 whole entry): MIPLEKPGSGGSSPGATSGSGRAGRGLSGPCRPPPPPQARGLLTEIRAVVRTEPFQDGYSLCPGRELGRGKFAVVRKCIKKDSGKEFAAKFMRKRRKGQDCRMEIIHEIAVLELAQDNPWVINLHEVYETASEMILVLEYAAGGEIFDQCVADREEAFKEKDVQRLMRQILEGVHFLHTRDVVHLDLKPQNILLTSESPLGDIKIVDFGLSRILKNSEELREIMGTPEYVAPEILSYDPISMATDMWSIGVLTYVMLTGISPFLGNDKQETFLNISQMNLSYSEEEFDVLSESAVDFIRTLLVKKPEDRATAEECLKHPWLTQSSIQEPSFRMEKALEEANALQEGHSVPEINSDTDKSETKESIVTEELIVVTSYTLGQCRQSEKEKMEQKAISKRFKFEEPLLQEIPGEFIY
The series is described as follows: Binding affinity to human N-terminal His-tagged/ TEV cleavage fused DRAK1 (39 to 369 residues) expressed in Escherichia coli by isothermal titration calorimetry.

The target in series [6] is BMP-2-inducible protein kinase (Homo sapiens, UniProt Q9NSY1). The series is described as follows: Binding affinity to BIKE (unknown origin) assessed as change in melting temperature at 10 uM by SYPRO orange dye based DSF assay.
Chain of BMP-2-inducible protein kinase (Q9NSY1 whole entry, looked up): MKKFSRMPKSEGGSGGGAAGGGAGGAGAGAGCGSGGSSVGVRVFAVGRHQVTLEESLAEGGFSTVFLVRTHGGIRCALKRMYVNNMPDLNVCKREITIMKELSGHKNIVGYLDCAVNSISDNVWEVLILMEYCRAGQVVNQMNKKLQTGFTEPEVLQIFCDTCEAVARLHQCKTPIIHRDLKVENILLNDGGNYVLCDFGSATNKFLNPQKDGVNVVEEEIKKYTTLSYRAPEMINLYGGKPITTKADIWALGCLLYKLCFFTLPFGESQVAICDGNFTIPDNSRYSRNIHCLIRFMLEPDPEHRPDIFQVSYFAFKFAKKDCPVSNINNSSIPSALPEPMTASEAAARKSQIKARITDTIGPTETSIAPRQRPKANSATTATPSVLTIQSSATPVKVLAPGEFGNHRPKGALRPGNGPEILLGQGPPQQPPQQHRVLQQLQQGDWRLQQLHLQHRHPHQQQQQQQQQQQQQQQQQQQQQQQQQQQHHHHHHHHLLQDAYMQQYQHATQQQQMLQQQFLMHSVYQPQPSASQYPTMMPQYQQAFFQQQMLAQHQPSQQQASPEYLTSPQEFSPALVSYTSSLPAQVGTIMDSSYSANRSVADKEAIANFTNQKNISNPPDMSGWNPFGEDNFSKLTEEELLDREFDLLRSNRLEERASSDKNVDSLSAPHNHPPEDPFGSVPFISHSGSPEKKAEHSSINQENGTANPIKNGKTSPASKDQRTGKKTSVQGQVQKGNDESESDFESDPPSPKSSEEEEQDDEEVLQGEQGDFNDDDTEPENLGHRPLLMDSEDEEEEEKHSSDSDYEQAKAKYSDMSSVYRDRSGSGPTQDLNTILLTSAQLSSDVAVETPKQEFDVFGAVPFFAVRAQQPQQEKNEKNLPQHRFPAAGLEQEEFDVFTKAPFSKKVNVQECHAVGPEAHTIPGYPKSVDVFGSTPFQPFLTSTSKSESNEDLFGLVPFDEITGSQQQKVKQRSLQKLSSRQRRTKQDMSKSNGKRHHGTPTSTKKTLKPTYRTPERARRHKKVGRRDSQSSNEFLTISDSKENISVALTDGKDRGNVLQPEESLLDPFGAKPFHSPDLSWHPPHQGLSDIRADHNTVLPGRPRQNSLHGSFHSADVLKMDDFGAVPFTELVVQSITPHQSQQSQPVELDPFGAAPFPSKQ
For another series, the system named is LN-229. The series is described as follows: Antiproliferative activity against human LN-229 cells assessed as reduction in cell viability after 1 to 7 days by resazurin dye based fluorimetric analysis. Type of series: functional.
Series [7] is described as follows: Inhibition of human CK2alpha2 using RRRDDDSDDD peptide as substrate in presence of [gamma-33P]ATP by radiometric based scintillation proximity assay.
The target in series [8] is Casein kinase II subunit alpha (Homo sapiens, UniProt P68400). The series is described as follows: Inhibition of CK2alpha1(unknown origin) transfected in HEK293T cells using NanoBRET NanoGlo as substrate incubated for 2 hrs by NanoBRET assay. Type of series: cell-based.
Chain of Casein kinase II subunit alpha (P68400 whole entry): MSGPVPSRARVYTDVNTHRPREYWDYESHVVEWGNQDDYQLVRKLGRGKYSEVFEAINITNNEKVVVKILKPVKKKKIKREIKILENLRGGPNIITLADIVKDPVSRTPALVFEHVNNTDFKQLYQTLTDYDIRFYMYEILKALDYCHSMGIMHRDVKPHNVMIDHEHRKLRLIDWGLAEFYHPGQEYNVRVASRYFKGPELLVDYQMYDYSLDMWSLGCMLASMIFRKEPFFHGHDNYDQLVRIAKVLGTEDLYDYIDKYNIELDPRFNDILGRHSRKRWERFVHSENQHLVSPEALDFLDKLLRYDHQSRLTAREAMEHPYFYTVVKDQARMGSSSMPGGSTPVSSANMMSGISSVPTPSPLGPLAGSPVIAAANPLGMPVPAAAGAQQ
The test system of a further series is T98G. The series is described as follows: Induction of morphological changes in human T98G cells assessed as change in cell shape at 12.5 uM incubated for 5 days by microscopy analysis. Type of series: functional, cell-based. Particulars: time 5.0 day.
In series [9] the test system is HEK-293T. The series is described as follows: Induction of morphological changes in human HEK293T cells assessed as mitochondrial damage at 1 to 10 uM incubated for 18 hrs by confocal fluorescence microscopic analysis. Type of series: toxicity, cell-based. Particulars: dose 1-10 µM.
The target of series [10] is AP2-associated protein kinase 1 (Homo sapiens) (UniProt Q2M2I8). The series is described as follows: Binding affinity to AAK1 (unknown origin) assessed as change in melting temperature at 10 uM by SYPRO orange dye based DSF assay.
Chain of AP2-associated protein kinase 1 (Homo sapiens) (Q2M2I8 whole entry, looked up): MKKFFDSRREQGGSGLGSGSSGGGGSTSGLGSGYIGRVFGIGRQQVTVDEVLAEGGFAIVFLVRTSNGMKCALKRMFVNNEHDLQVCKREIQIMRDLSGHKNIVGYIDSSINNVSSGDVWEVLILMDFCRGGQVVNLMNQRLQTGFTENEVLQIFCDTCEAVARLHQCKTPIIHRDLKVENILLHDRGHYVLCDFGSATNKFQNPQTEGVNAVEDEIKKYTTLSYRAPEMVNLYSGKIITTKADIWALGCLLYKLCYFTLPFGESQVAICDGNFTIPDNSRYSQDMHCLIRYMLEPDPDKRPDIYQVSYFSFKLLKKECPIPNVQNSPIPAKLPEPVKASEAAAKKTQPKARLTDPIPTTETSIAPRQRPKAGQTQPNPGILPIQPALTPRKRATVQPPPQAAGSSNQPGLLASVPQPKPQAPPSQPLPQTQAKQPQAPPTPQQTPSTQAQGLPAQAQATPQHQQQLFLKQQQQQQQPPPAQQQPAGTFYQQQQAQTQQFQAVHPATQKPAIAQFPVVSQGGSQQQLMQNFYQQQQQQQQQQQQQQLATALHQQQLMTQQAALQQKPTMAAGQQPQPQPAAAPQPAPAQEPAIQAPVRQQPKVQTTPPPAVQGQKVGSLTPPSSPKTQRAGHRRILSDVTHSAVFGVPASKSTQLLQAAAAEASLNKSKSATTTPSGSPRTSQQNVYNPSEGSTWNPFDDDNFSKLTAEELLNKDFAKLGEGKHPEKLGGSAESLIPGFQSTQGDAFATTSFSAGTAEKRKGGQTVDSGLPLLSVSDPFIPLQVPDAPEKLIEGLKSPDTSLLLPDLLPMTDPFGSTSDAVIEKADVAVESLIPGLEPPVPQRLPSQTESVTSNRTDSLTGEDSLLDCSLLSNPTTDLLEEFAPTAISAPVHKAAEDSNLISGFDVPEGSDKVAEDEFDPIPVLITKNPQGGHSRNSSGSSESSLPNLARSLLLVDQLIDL

One may read the IC50 as the midpoint of a concentration-inhibition curve. The ΔTm is the change in melting temperature against a reference sample. For orientation: EC50 means the concentration needed to bring the measured effect to its halfway point. The term Kd denotes a measure of binding affinity in units of concentration. A higher Kd goes with a looser complex. Turning to `CC(C)(C)NC(=O)c1ccc2cc1OCCOCCNc1ccn3ncc-2c3n1`, the Activity entry with HEK-293T [1] is on record as “Toxic”; in [4], “Toxic”; in the series with HEK-293T [9], “Non-Toxic”. Moreover, the IC50 in series [2] turned out to be 24 µM; in series [7] it was 0.38 µM; in [8], 34 µM. Further, the ΔTm in series [3] was 2.3 °C; in series [6], more than 5 °C; in series [10], more than 5 °C. Moreover, the EC50 came to 11.2 µM with LN-18, 2.75 µM with D-247MG and 9.2 µM in the series with LN-229. For the same compound, in series [5], binding was put at a Kd of 0.021 µM. Also, the result in the series on T98G was Active.
